According to ChEMBL document CHEMBL5500406, “Discovery of Novel Proteolysis-Targeting Chimera Molecules as Degraders of Programmed Cell Death-Ligand 1 for Breast Cancer Therapy” (J Med Chem, 2024):
The source made the active and inactive calls. No cut-off for these calls is given here.

Experiments:
4T1 [1] = assay: Antitumor activity against mouse 4T1 cells assessed as inhibition of cell viability incubated for 48 hrs by MTT assay; type: functional, cell-based; conditions: 4T1, 48 h
[2] = Toxicity in BALB/c mouse allografted with mouse 4T1 cells assessed as pathological change in lung at 60 mg/kg, ip qd for 15 days in presence of Paclitaxel by H and E staining based analysis; type: organism-based; conditions: in vivo, 360 h, time 15 day
[3] = Toxicity in BALB/c mouse allografted with mouse 4T1 cells assessed as body weight loss at 60 mg/kg, ip qd for 15 days in presence of Paclitaxel; type: organism-based; conditions: in vivo, 360 h, time 15 day
4T1 [4] = assay: Antitumor activity against mouse 4T1 cells assessed as increase in cell mortality rate at 0.078 uM pretreated with compound followed by co-culture of CD3/CD28-activated PBMC cells measured after 24 hrs by LDH assay relative to control; type: functional
4T1 [5] = assay: Antitumor activity against mouse 4T1 cells allografted in BALB/c mouse assessed as increase in GzmB mRNA level in tumor at 60 mg/kg, ip qd for 15 days by qRT-PCR analysis; type: functional, organism-based; conditions: time 15.0 day
[6] = Toxicity in BALB/c mouse allografted with mouse 4T1 cells assessed as pathological change in kidney at 60 mg/kg, ip qd for 15 days in presence of Paclitaxel by H and E staining based analysis; type: organism-based; conditions: in vivo, 360 h, time 15 day
[7] = Volume of distribution at steady state in Sprague-Dawley rat at 3 mg/kg, iv measured for 24 hrs by LC-MS/MS analysis; type: ADME, organism-based; conditions: in vivo, read-out: Vdss
[8] = biological target: T1, Protein cereblon/Programmed cell death 1 ligand 1 (Homo sapiens) (UniProt Q9NZQ7+Q96SW2); assay: PROTAC activity at CRBN/PD-L1 in human NCI-H2228 cells assessed as protein degradation at >=5 uM measured for 24 hrs by Western blot analysis; type: cell-based
[9] = Toxicity in BALB/c mouse allografted with mouse 4T1 cells assessed as abnormality in routine blood analysis at 60 mg/kg, ip qd for 15 days in presence of Paclitaxel; type: organism-based; conditions: in vivo, 360 h, time 15 day
4T1 [10] = assay: Antitumor activity against mouse 4T1 cells allografted in BALB/c mouse assessed as increase in CD8+ T cells infiltration in tumor at 30 to 60 mg/kg, ip qd for 15 days by IHC analysis; type: functional, organism-based; conditions: dose 30-60 mg/kg, time 15.0 day
[11] = biological target: T1, Protein cereblon/Programmed cell death 1 ligand 1 (Homo sapiens); assay: PROTAC activity at CRBN/PD-L1 in human MDA-MB-231 cells assessed as protein degradation at >=5 uM measured for 24 hrs by Western blot analysis; type: cell-based
4T1 [12] = assay: Antitumor activity against mouse 4T1 cells allografted in BALB/c mouse assessed as reduction in tumor weight at 60 mg/kg, ip qd for 15 days in presence of Paclitaxel; type: functional, organism-based; conditions: time 15.0 day
[13] = Toxicity in BALB/c mouse allografted with mouse 4T1 cells assessed as pathological change in heart at 60 mg/kg, ip qd for 15 days in presence of Paclitaxel by H and E staining based analysis; type: organism-based; conditions: in vivo, 360 h, time 15 day
[14] = Tmax in Sprague-Dawley rat at 30 mg/kg, ip measured for 24 hrs by LC-MS/MS analysis; type: ADME, organism-based; conditions: in vivo
[15] = Toxicity in BALB/c mouse allografted with mouse 4T1 cells assessed as pathological change in spleen at 30 to 60 mg/kg, ip qd for 15 days by H and E staining based analysis; type: organism-based; conditions: in vivo, 360 h, dose 30-60 mg/kg, time 15 day
[16] = Toxicity in BALB/c mouse allografted with mouse 4T1 cells assessed as abnormality in biochemical analysis at 60 mg/kg, ip qd for 15 days in presence of Paclitaxel; type: organism-based; conditions: in vivo, 360 h, time 15 day
[17] = […] bioavailability in Sprague-Dawley rat at 30 mg/kg, ip measured for 24 hrs by LC-MS/MS analysis; type: ADME, organism-based; conditions: in vivo
[18] = biological target: T2, Protein cereblon/Programmed cell death 1 ligand 1 (Mus musculus) (UniProt Q9EP73+Q8C7D2); assay: PROTAC activity at CRBN/PD-L1 in mouse 4T1 cells assessed as protein degradation at 0.078 to 2.5 uM incubated for 24 hrs by Western blot analysis; type: cell-based; conditions: dose 0.078-2.5 µM
[19] = biological target: T2, Protein cereblon/Programmed cell death 1 ligand 1 (Mus musculus); assay: PROTAC activity at CRBN/PD-L1 in mouse 4T1 cells assessed as reduction in green fluorescence in cell membrane at 0.312 uM incubated for 24 hrs by immunofluorescence analysis; type: cell membranes
4T1 [20] = assay: Antitumor activity against mouse 4T1 cells allografted in BALB/c mouse assessed as increase in IFN-gamma mRNA level in tumor at 60 mg/kg, ip qd for 15 days by qRT-PCR analysis; type: functional, organism-based; conditions: time 15.0 day
[21] = Toxicity in BALB/c mouse allografted with mouse 4T1 cells assessed as pathological change in liver at 30 to 60 mg/kg, ip qd for 15 days by H and E staining based analysis; type: organism-based; conditions: in vivo, 360 h, dose 30-60 mg/kg, time 15 day
[22] = Cytotoxicity against BALB/c mouse PBMC cells at <=0.312 uM incubated for 48 hrs by MTT assay; type: toxicity, cell-based
[23] = Toxicity in BALB/c mouse allografted with mouse 4T1 cells assessed as abnormality in biochemical analysis at 30 to 60 mg/kg, ip qd for 15 days; type: organism-based; conditions: in vivo, 360 h, dose 30-60 mg/kg, time 15 day
[24] = Half life in Sprague-Dawley rat at 3 mg/kg, iv measured for 24 hrs by LC-MS/MS analysis; type: ADME, organism-based; conditions: in vivo
[25] = Toxicity in BALB/c mouse allografted with mouse 4T1 cells assessed as pathological change in kidney at 30 to 60 mg/kg, ip qd for 15 days by H and E staining based analysis; type: organism-based; conditions: in vivo, 360 h, dose 30-60 mg/kg, time 15 day
4T1 [26] = assay: Antitumor activity against mouse 4T1 cells allografted in BALB/c mouse at 60 mg/kg, ip qd for 15 days in presence of Paclitaxel relative to control; type: functional; conditions: 4T1, 360 h, time 15 day, read-out: TGI
4T1 [27] = assay: Antitumor activity against mouse 4T1 cells assessed as increase in cell mortality rate at 0.312 uM pretreated with compound followed by co-culture of CD3/CD28-activated PBMC cells measured after 24 hrs by LDH assay relative to control; type: functional

T1 sequence (Q96SW2 whole entry, looked up): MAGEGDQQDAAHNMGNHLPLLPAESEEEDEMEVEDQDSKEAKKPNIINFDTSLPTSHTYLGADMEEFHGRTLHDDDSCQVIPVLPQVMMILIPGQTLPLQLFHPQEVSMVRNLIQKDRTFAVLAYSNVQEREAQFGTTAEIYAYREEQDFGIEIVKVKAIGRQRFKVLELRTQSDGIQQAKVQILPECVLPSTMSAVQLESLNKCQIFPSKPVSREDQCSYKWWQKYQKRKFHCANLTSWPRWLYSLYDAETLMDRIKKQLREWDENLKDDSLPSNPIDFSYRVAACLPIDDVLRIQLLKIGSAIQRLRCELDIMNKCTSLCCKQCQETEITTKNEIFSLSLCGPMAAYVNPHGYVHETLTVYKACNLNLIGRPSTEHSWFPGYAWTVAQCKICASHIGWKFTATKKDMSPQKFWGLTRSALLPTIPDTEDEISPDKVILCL
T1 sequence (Q9NZQ7 whole entry, looked up): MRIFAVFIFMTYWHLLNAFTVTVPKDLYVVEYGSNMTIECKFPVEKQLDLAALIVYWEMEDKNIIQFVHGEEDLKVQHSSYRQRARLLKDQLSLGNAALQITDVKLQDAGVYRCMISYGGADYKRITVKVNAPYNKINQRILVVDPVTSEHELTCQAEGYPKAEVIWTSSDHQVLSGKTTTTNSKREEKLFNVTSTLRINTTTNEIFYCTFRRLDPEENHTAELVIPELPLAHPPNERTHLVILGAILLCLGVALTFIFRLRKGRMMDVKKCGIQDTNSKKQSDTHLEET
T2 sequence (Q8C7D2 whole entry partner): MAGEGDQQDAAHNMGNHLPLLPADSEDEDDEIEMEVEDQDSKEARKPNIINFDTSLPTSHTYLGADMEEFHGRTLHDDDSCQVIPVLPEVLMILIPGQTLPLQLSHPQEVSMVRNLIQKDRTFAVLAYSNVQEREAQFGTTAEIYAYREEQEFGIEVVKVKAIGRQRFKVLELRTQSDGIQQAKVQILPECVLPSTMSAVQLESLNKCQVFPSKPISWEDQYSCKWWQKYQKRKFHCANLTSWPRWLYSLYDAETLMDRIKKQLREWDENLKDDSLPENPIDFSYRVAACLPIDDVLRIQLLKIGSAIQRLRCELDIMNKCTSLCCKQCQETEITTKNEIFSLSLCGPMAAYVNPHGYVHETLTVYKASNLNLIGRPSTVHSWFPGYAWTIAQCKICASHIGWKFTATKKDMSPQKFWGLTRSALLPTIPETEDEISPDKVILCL
T2 sequence (Q9EP73 19-290 limits assumed): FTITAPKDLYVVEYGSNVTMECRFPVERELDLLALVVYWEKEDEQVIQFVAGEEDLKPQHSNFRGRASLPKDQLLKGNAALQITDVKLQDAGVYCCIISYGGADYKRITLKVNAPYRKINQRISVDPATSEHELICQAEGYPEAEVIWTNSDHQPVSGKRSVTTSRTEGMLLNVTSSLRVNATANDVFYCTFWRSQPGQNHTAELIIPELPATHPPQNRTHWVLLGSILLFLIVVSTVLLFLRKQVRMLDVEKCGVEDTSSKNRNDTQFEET

For `COc1nc(OCc2cccc(-c3ccccc3)c2C)ccc1CNCCNC(=O)CCCCCCCCNC(=O)COc1ccc(C2CCC(=O)NC2=O)cc1` (configuration not stated), the IC50 (4T1 [1]) was 23.1 µM, the Activity [2] was “Non-Toxic” and the Activity [3] was “Non-Toxic”. For the same compound, the Activity (4T1 [4]) was 31.8%, the Activity (4T1 [5]) was “Active” and the Activity [6] was “Non-Toxic”. For the same compound, the Vd [7] was 23 L/kg, the Activity [8] was “Active” and the Activity [9] was “Non-Toxic”. For the same compound, the Activity (4T1 [10]) was “Active”, the Activity [11] was “Active” and the Activity (4T1 [12]) was “Active”. The Activity [13] was “Non-Toxic”, the Tmax [14] was 2 h and the Activity [15] was “Non-Toxic”. For the same compound, the Activity [16] was “Non-Toxic”, the bioavailability [17] was 71.2% and the Activity [18] was “Active”. The Activity [19] was “Active”, the Activity (4T1 [20]) was “Active” and the Activity [21] was “Non-Toxic”. For the same compound, the Activity [22] was “Non-Toxic”, the Activity [23] was “Non-Toxic” and the half-life [24] was 0.952 h. For the same compound, the Activity [25] was “Non-Toxic”, the inhibition in vivo at 60 mg/kg (4T1 [26]) was 86.7% and the Activity (4T1 [27]) was 72.3%.
